The values below come from PMC10719919 (ACS Omega, 2023).

Molecules are shown by their SMILES.

Data set [1] deals with AChE EC 3.1.1.7 (Electrophorus electricus, UniProt O42275). As to the kind of experiment: biochemical.
Data set [2] deals with AChE (Electrophorus electricus, UniProt O42275). As to the kind of experiment: Enzyme kinetics of AChE inhibition. The class given is biochemical. The settings on record: for Vmax (μmol/min)^−^1: Vmax of AChE, not apparent.
Data set [3] is described as follows: Cytotoxicity: human neutrophil viability assay. The settings on record: human. The format is cell-based.
In data set [4] the test system is human neutrophils. Nature of the data set: Cytotoxicity: human neutrophil viability assay. The format is cell-based. The settings on record: 200 μg/mL.
For data set [5], the system named is rabbit jejunum. The settings on record: high K+ (80 mM)-contracted isolated rabbit jejunum; Mean ± SEM, n = 3.
The test system of data set [6] is rabbit jejunum. Nature of the data set: Spasmolytic activity on spontaneous contraction of isolated rabbit jejunum. Particulars: spontaneously contracting isolated rabbit jejunum; Mean ± SEM, n = 3.

Chain of AChE (O42275 24-633): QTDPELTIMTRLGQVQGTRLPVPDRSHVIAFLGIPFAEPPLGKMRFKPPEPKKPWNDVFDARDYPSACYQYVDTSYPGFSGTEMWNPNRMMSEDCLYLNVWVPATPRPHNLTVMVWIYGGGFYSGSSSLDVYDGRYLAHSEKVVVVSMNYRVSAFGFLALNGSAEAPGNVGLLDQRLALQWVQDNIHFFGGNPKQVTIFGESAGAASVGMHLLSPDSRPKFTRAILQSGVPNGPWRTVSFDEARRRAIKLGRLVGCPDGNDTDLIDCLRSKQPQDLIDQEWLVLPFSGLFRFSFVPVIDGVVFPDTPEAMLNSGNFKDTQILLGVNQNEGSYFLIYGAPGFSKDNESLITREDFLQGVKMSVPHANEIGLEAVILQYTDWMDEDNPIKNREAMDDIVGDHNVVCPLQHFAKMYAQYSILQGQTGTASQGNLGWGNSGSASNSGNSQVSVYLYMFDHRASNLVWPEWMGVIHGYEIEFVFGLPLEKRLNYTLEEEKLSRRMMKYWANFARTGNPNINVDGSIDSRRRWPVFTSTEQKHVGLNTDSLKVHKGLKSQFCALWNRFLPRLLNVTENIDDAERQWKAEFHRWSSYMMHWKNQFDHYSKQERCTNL
Chain of AChE EC 3.1.1.7 (O42275 24-633): as above

`CCSc1nc2ccccc2n1Cc1nnc(-c2ccc(F)cc2)o1` [Compound 15, 2-((2-(Ethylthio)-1H-benzo[d]imidazole-1-yl)methyl)-5-(4-fluorophenyl)-1,3,4-oxadiazole]: in data set [1], the IC50 – broadly, the concentration that inhibits the measured activity by half – is 130.5 ± 1.03 µM. In addition, in data set [2], the Ki – broadly, the dissociation constant of the complex between target and ligand, obtained from inhibition or displacement – worked out at 53.3 ± 1.4 µM; the type of inhibition entry is listed as “noncompetitive”; the “Vmax (μmol/min)^−^1” value is given as 5.0 (μmol/min)^−^1.
`CCCCCCCc1nnc(Cn2c(SCC)nc3ccccc32)o1` [Compound 16, 2-((2-(Ethylthio)-1H-benzo[d]imidazole-1-yl)methyl)-5-heptyl-1,3,4-oxadiazole]: the IC50 in data set [1] was found to be 41.9 ± 0.67 µM. Further, the viability (as a rule, a read-out of living cells in per cent, often relative to untreated cells) at 30 min, 200 µg/ml in data set [3] is 96.1 ± 2.5%. Besides, the “toxicity in the neutrophil viability assay (in words)” value in data set [4] is recorded as “nontoxic”. Also, the “Effective dose (ED50), High K+” value in data set [5] came to 0.22 ± 0.01 µg/mL. Moreover, the “Effective dose (ED50), Spontaneous” value in data set [6] came out at 0.12 ± 0.00 µg/mL. For the same compound, in data set [2], the Ki was found to be 18.3 ± 1.7 µM, the type of inhibition result is reported as “noncompetitive” and the “Vmax (μmol/min)^−^1” value is 5.0 (μmol/min)^−^1.
Turning to `CCSc1nc2ccccc2n1Cc1nnc(-c2ccco2)o1` [Compound 17, 2-((2-(Ethylthio)-1H-benzo[d]imidazole-1-yl)methyl)-5-(furan-2-yl)-1,3,4-oxadiazole], the IC50 in data set [1] was 69.7 ± 0.95 µM. Also, the viability at 30 min, 200 µg/ml in data set [3] turned out to be 100 ± 1%. For the same compound, the “toxicity in the neutrophil viability assay (in words)” value in data set [4] is on record as “nontoxic”. In addition, the “Effective dose (ED50), High K+” value in data set [5] was 0.26 ± 0.05 µg/mL. The “Effective dose (ED50), Spontaneous” value in data set [6] came out at 0.13 ± 0.07 µg/mL. Moreover, in data set [2], the affinity, expressed as Ki, was 24.3 ± 1.3 µM; the type of inhibition entry was “noncompetitive”; the “Vmax (μmol/min)^−^1” value is recorded as 5.0 (μmol/min)^−^1.
With `CCSc1nc2ccccc2n1Cc1nnc(-c2cccc(OC)c2O)o1` [Compound 18, 2-(5-((2-(Ethylthio)-1H-benzo[d]imidazole-1-yl)methyl)-1,3,4-oxadiazol-2-yl)-6-methoxyphenol], in data set [1], the IC50 was 248.8 ± 1.02 µM. In data set [2], the Ki stood at 98.77 ± 0.7 µM, the type of inhibition result is listed as “noncompetitive” and the “Vmax (μmol/min)^−^1” value is given as 5.0 (μmol/min)^−^1.
In data set [1], `CCOc1cccc(-c2nnc(Cn3c(SCC)nc4ccccc43)o2)c1O` [Compound 19, 2-Ethoxy-6-(5-((2-(ethylthio)-1H-benzo[d]imidazole-1-yl)methyl)-1,3,4-oxadiazol-2-yl)phenol] displayed a half-maximal inhibitory concentration (IC50) of 223.5 ± 0.96 µM. Moreover, in data set [2], the Ki is 93.3 ± 1.5 µM, the type of inhibition entry was “noncompetitive” and the “Vmax (μmol/min)^−^1” value is on record as 5.0 (μmol/min)^−^1.
The corresponding values for `CCSc1nc2ccccc2n1Cc1nnc(-c2ccc(OC)cc2)o1` [Compound 20, 2-((2-(Ethylthio)-1H-benzo[d]imidazole-1-yl)methyl)-5-(4-methoxyphenyl)-1,3,4-oxadiazole] are 380.1 ± 0.87 µM, 147 ± 1.9 µM, “noncompetitive” and 5.0 (μmol/min)^−^1.
`CCSc1nc2ccccc2n1Cc1nnc(-c2ccccc2OC)o1` [Compound 21, 2-((2-(Ethylthio)-1H-benzo[d]imidazole-1-yl)methyl)-5-(2-methoxyphenyl)-1,3,4-oxadiazole] displayed an IC50 in data set [1] of 291.9 ± 1.52 µM. Further, in data set [2], the Ki was 112 ± 1.3 µM, the type of inhibition entry is reported as “noncompetitive” and the “Vmax (μmol/min)^−^1” value is reported as 5.0 (μmol/min)^−^1.
The corresponding values for `CCSc1nc2ccccc2n1Cc1nnc(-c2ccc(C)o2)o1` [Compound 22, 2-((2-(Ethylthio)-1H-benzo[d]imidazole-1-yl)methyl)-5-(5-methylfuran-2-yl)-1,3,4-oxadiazole] are 97.94 ± 0.79 µM, 32.1 ± 1.4 µM, “noncompetitive” and 5.0 (μmol/min)^−^1.
Take `CCSc1nc2ccccc2n1Cc1nnc(-c2ccccc2Cl)o1` [Compound 23, 2-(2-Chlorophenyl)-5-((2-(ethylthio)-1H-benzo[d]imidazole-1-yl)methyl)-1,3,4-oxadiazole]: half-maximal inhibition in data set [1] (IC50) was put at 118 ± 1.41 µM. For the same compound, in data set [2], the affinity corresponds to a Ki of 45.1 ± 0.9 µM, the type of inhibition entry is on record as “noncompetitive” and the “Vmax (μmol/min)^−^1” value is listed as 5.0 (μmol/min)^−^1.
The corresponding values for `CCSc1nc2ccccc2n1Cc1nnc(-c2ccc(OC)c(OC)c2)o1` [Compound 24, 2-(3,4-Dimethoxyphenyl)-5-((2-(ethylthio)-1H-benzo[d]imidazole-1-yl)methyl)-1,3,4-oxadiazole] are 692 ± 0.99 µM, 284.2 ± 1.2 µM, “noncompetitive” and 5.0 (μmol/min)^−^1.
The corresponding values for `CCSc1nc2ccccc2n1Cc1nnc(-c2ccc(Cl)cc2)o1` [Compound 25, 2-(4-Chlorophenyl)-5-((2-(ethylthio)-1H-benzo[d]imidazole-1-yl)methyl)-1,3,4-oxadiazole] are 208.3 ± 1.39 µM, 83.21 ± 0.6 µM, “noncompetitive” and 5.0 (μmol/min)^−^1.
With `CCSc1nc2ccccc2n1Cc1nnc(-c2ccc(O)cc2)o1` [Compound 26, 4-(5-((2-(Ethylthio)-1H-benzo[d]imidazole-1-yl)methyl)-1,3,4-oxadiazol-2-yl)phenol], in data set [1], the IC50 was 93.2 ± 0.96 µM. Besides, in data set [2], the affinity, expressed as Ki, was 30.5 ± 1.9 µM; the type of inhibition entry was “noncompetitive”; the “Vmax (μmol/min)^−^1” value is recorded as 5.0 (μmol/min)^−^1.
As to `CCSc1nc2ccccc2n1Cc1nnc(-c2cc(OC)c(OC)c(OC)c2)o1` [Compound 27, 2-((2-(Ethylthio)-1H-benzo[d]imidazole-1-yl)methyl)-5-(3,4,5-trimethoxyphenyl)-1,3,4-oxadiazole], in data set [1], the IC50 came to 1580.2 ± 0.76 µM. Moreover, in data set [2], the Ki is 775.02 ± 0.5 µM, the type of inhibition result is reported as “noncompetitive” and the “Vmax (μmol/min)^−^1” value was 5.0 (μmol/min)^−^1.
For `CCSc1nc2ccccc2n1Cc1nnc(-c2ccc([N+](=O)[O-])cc2)o1` [Compound 28, 2-((2-(Ethylthio)-1H-benzo[d]imidazole-1-yl)methyl)-5-(4-nitrophenyl)-1,3,4-oxadiazole] the same measures were 750.9 ± 1.19 µM, 289.2 ± 0.8 µM, “noncompetitive” and 5.0 (μmol/min)^−^1.
For `CCSc1nc2ccccc2n1Cc1nnc(-c2ccc(F)c(OC)c2)o1` [Compound 29, 2-((2-(Ethylthio)-1H-benzo[d]imidazole-1-yl)methyl)-5-(4-fluoro-3-methoxyphenyl)-1,3,4-oxadiazole] the same measures were 84.2 ± 1.99 µM, 34.2 ± 0.9 µM, “noncompetitive” and 5.0 (μmol/min)^−^1.
For `CCSc1nc2ccccc2n1Cc1nnc(-c2ccc(O)cc2O)o1` [Compound 30, 4-(5-((2-(Ethylthio)-1H-benzo[d]imidazole-1-yl)methyl)-1,3,4-oxadiazol-2-yl)benzene-1,3-diol] the same measures were 1190 ± 0.65 µM, 456.71 ± 0.2 µM, “noncompetitive” and 5.0 (μmol/min)^−^1.
As to `CCSc1nc2ccccc2n1Cc1nnc(-c2ccccc2O)o1` [Compound 31, 2-(5-((2-(Ethylthio)-1H-benzo[d]imidazole-1-yl)methyl)-1,3,4-oxadiazol-2-yl)phenol], in data set [1], the IC50 amounted to 248.5 ± 1.81 µM. In data set [2], the affinity corresponds to a Ki of 89.5 ± 1.5 µM, the type of inhibition entry is reported as “noncompetitive” and the “Vmax (μmol/min)^−^1” value was 5.0 (μmol/min)^−^1.
`CCSc1nc2ccccc2n1Cc1nnc(-c2cccc(O)c2)o1` [Compound 32, 3-(5-((2-(Ethylthio)-1H-benzo[d]imidazole-1-yl)methyl)-1,3,4-oxadiazol-2-yl)phenol] registered an IC50 in data set [1] of 400.7 ± 0.95 µM. Further, in data set [2], the Ki is 148.8 ± 0.2 µM, the type of inhibition entry is “noncompetitive” and the “Vmax (μmol/min)^−^1” value is listed as 5.0 (μmol/min)^−^1.
For `CCSc1nc2ccccc2n1Cc1nnc(-c2cccc(O)c2O)o1` [Compound 33, 3-(5-((2-(Ethylthio)-1H-benzo[d]imidazole-1-yl)methyl)-1,3,4-oxadiazol-2-yl)benzene-1,2-diol] the same measures were 320.6 ± 1.12 µM, 121 ± 0.5 µM, “noncompetitive” and 5.0 (μmol/min)^−^1.
In data set [1], `CCSc1nc2ccccc2n1Cc1nnc(-c2ccc(C)cc2)o1` [Compound 34, 2-((2-(Ethylthio)-1H-benzo[d]imidazole-1-yl)methyl)-5-(p-tolyl)-1,3,4-oxadiazole] had an IC50 of 377.4 ± 1.57 µM. In data set [2], the Ki is 135.2 ± 0.5 µM, the type of inhibition result is reported as “noncompetitive” and the “Vmax (μmol/min)^−^1” value is on record as 5.0 (μmol/min)^−^1.
For `CCSc1nc2ccccc2n1Cc1nnc(-c2ccc(N(CC)CC)cc2)o1` [Compound 35, N,N-Diethyl-4-(5-((2-(ethylthio)-1H-benzo[d]imidazole-1-yl)methyl)-1,3,4-oxadiazol-2-yl)aniline] the same measures were 258.1 ± 1.02 µM, 101.3 ± 0.3 µM, “noncompetitive” and 5.0 (μmol/min)^−^1.
For the compound `COc1ccc2c3c1O[C@H]1C[C@@H](O)C=C[C@@]31CCN(C)C2` [Galanthamine, reference compound], in data set [3], the viability at 30 min, 200 µg/ml is 96 ± 3.1%.
